Test results reported in US20260028352A1, “MACROCYCLIC IMIDAZO [1,2-B] PYRIDAZINE DERIVATIVE, PREPARATION METHOD THEREFOR, AND USE THEREOF” (SUZHOU LANGRUI BIOPHARMACEUTICAL CO., LTD., priority 2022, published 2026).

Experiments:
[1] = tested on: Ba/F3-TPM3-NTRK1-G667C cells; assay: Growth inhibition of Ba/F3-TPM3-NTRK1-G667C cells (Cell Titer-Glo); assay type: cell-based; details: 72 hours, CTG; read-out: inhibitory activity IC50 Ba/F3-TPM3-NTRK1-G667C
Procedure: (§1) Then the solutions were subjected to a gradient dilution with DMSO: a clean, sterile V-bottom 96-well microplate was placed in the biological safety cabinet. First, 4 μL of DMSO was added to well B2 and 10 μL of DMSO was added to wells B3-B11 respectively; Next, 6 μL of the 10 mM solution was added to well B2. The microplate was pipetted up and down 10 times for mixing. […] Mixing was performed by pipetting up and down 10 times. The solution was diluted in order until well B10. only DMSO was added to well B11 (no compound).
(§2) 6× Compound Solution Preparation (6-fold dilution, × represents dilution factor): (Initial final concentration: 10 μM), a clean, sterile V-bottom 96-well microplate was placed in the biological safety cabinet. 99 μL of cell culture medium was added to each well from B2 to G11. By using a 12-channel pipettor, 1 μL of the compound solution prepared in the previous step was added into the corresponding wells. The solutions were pipetted up and down 10 times to mix the solutions. The highest concentration of compound in this step was 60 μM.
(§3) Treatment of Cells: the above-prepared cell culture plate was taken out of the incubator. 20 μL of compound solution from each well was added to the corresponding cell culture wells. The lowest pipetting speed was used and touching the bottom of the plate was avoided. The culture plate was gently shaked to mix the compound solution, then the plate was returned to the incubator for further culture for 72 hours.
(§4) The highest treatment concentration of the compound was 10 μM. After 72 hours of treatment, the Cell Titer-Glo (CTG) assay was performed. First, the cell culture plate was removed from the CO2 incubator and allowed to stand at room temperature for 30 minutes to ensure uniform temperature of the plate. The pre-prepared Cell Titer-Glo reagent (following the manufacturer's instructions) was taken and allowed to stand at room temperature to thaw. 60 μL of Cell Titer-Glo reagent was added to each well containing cells. The cells were incubated on a horizontal shaker in a dark place at 225 rpm for 1 hour at room temperature. Then, a Tecan Spark microplate reader was used to read the plate using chemiluminescence according to the manufacturer's instructions.

[2] = tested on: Ba/F3-TPM3-NTRK1-WT cells; assay: Growth inhibition of Ba/F3-TPM3-NTRK1-WT cells (Cell Titer-Glo); assay type: cell-based; details: 72 hours, CTG; read-out: inhibitory activity IC50 Ba/F3-TPM3-NTRK1-WT
Procedure: as §1, §2, §3, §4

[3] = tested on: Ba/F3-TPM3-NTRK1-G595R cells; assay: Growth inhibition of Ba/F3-TPM3-NTRK1-G595R cells (Cell Titer-Glo); assay type: cell-based; details: 72 hours, CTG; read-out: inhibitory activity IC50 Ba/F3-TPM3-NTRK1-G595R
Procedure: as §1, §2, §3, §4

TRKA^WT kinase = TRKA^WT kinase (Homo sapiens (Human), UniProt P04629); assay: Inhibitory activity against TRKA WT kinase (Caliper mobility shift); assay type: biochemical; details: in vitro kinase assay
Procedure: Kinase Assay Process: 1× Kinase buffer was prepared. […] The compounds were serially diluted into 10 concentrations ([…], 0.15, and 0.05 nM) using a Precision 3-fold dilution method. By using the Echo550 liquid handler, 250 nL of the 100-fold final concentration compound was transferred to an OptiPlate-384F plate. a 2.5× final concentration kinase solution was prepared using 1× Kinase buffer. 10 μL of the 2.5× final concentration kinase solution was added to the compound wells and the positive control wells, and 10 μL of 1× Kinase buffer was added to the negative control wells. The plate was centrifuged at 1000 rpm for 30 seconds, vortexed for mixing, and then incubated at room temperature for 10 minutes. A mixture of 5/3× final concentration of ATP and Kinase Substrate 22 was prepared using 1× Kinase buffer. 15 μL of the mixture of the 5/3× final concentration ATP and the substrate was added to initiate the reaction, the 384-well plate was centrifuged at 1000 rpm for 30 seconds, vortexed for mixing, and incubated at room temperature for the required time. 30 μL of the termination solution was added to stop the kinase reaction, the plate was centrifuged at 1000 rpm for 30 seconds, and vortexed for mixing. The conversion rate was measured using the Caliper EZ Reader.
Data Analysis: the inhibition rate was calculated as follows:
% Inhibition=(Conversion %_max−conversion %_sample)÷(Conversion %_max−conversion %_min)×100
Conversion %_sample is the conversion rate reading for the sample; Conversion %_min is the average value of the negative control wells, representing the conversion rate for wells without enzyme activity: Conversion %_max is the average value of the positive control wells, representing the conversion rate for wells without compound inhibition. A dose-response curve was fitted using the log concentration of the compound as the X-axis and the percentage inhibition as the Y-axis. The log(inhibitor) vs. response-variable slope of the GraphPad Prism 5 software was used to fit the dose-response curve, and the IC50 value for each compound was obtained. The calculation formula is:
Y=Bottom+(Top−Bottom)/(1+10^((Log IC50−X)*HillSlope)).
wherein X represents the concentration of the compound to be tested; Y represents the inhibition rate at the concentration X: Top refers to the maximum response: Bottom refers to the baseline response; HillSlope refers to the slope of the curve (i.e., the gradient).

Chain of TRKA^WT kinase (P04629 33-796): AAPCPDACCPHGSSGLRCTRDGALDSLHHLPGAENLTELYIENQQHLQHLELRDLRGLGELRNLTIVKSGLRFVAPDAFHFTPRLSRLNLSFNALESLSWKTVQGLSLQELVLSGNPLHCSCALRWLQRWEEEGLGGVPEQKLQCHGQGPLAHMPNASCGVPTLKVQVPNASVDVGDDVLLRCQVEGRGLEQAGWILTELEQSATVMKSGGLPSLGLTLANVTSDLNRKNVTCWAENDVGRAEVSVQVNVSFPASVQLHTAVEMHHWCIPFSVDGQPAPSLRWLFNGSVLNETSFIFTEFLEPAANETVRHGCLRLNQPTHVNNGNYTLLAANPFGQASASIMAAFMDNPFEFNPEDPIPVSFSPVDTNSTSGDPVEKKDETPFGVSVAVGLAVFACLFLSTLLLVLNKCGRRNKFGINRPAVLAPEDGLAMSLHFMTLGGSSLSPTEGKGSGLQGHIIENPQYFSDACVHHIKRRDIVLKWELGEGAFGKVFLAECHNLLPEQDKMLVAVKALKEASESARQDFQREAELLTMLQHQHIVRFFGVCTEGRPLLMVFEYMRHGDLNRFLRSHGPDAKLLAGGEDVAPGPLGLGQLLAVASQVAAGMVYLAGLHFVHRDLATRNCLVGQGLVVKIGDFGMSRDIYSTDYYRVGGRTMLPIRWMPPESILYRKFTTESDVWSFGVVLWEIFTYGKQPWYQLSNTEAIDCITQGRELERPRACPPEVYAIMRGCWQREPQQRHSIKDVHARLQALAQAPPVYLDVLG

Row | Molecule | IC50 [1] [nM] | IC50 [2] [nM] | IC50 [3] [nM] | IC50 (TRKA^WT kinase) [nM]
1 | CC1Nc2ccc3ncc(n3n2)-c2cc(ccn2)CCOc2ccccc21 (stereo not drawn) [Example I-9, (E)-4-methyl-6-oxa-3-aza-2(3,6)-imidazo[1,2-b]pyridazina-1(2,4)-pyridina-5(1,2)-benzenacyclooctaphane] | 308 | 11 | 297 | 
2 | CC1Nc2ccc3ncc(n3n2)-c2cc(ncn2)COc2ccccc21 (stereo not drawn) [Example I-10, (E)-6-methyl-4-oxa-7-aza-1(3,6)-imidazo[1,2-b]pyridazina-2(4,6)-pyrimidine-5(1,2)-benzenacycloheptaphane] | 378 | 4.6 | 378 | 
3 | CC1Nc2ccc3ncc(n3n2)-c2cc(ncn2)CCOc2ccccc21 (stereo not drawn) [Example I-11, […]] | 419 | 2.5 | 419 | 
4 | C[C@@H]1Nc2ccc3ncc(n3n2)-c2cncc(c2)COc2ccc(F)cc21 [Example I-23, (S)-(E)-5^4-fluoro-6-methyl-4-oxa-7-aza-1(3,6)-imidazo[1,2-b]pyridazina-2(3,5)-pyridina-5(1,2)-benzenacycloheptaphane] |  |  |  | 4.8
5 | C[C@@H]1Nc2ccc3ncc(n3n2)-c2cc(ncn2)COc2ccccc21 [Example I-27, (6S,E)-6-methyl-4-oxa-7-aza-1(3,6)-imidazo[1,2-b]pyridazina-2(4,6)-pyrimidina-5(1,2)-benzenacycloheptaphane] |  |  |  | 3.7
6 | C[C@@H]1Nc2ccc3ncc(n3n2)-c2cc(ccn2)CCOc2ccccc21 [Example I-29, (4S,E)-4-methyl-6-oxa-3-aza-2(3,6)-imidazo [1,2-b]pyridazina-1(2,4)-pyridina-5(1,2)-benzenacyclooctaphane] |  |  |  | 4.9
7 | C[C@@H]1Nc2ccc3ncc(n3n2)-c2cc(ccn2)OCc2ccc(F)cc21 [Example I-31, (S)-(E)-5^4-fluoro-6-methyl-3-oxa-7-aza-1(3,6)-imidazo[1,2-b]pyridazina-2(2,4)-pyridina-5(1,2)-benzenacycloheptaphane] |  |  |  | 5.7
8 | C[C@@H]1Cc2ccnc(c2)-c2cnc3ccc(nn23)N2C[C@@H](F)C[C@@H]2c2cc(F)ccc2O1 [Example I-39, (3^2R,3^4S,6R,E)-3^4,4^5-difluoro-6-methyl-5-oxa-2(3,6)-imidazo[1,2-b]pyridazina-1(2,4)-pyridina-3(1,2)-pyrrolidina-4(1,2)-benzenacycloheptaphane] | 0.3 | 0.01 | 0.1 | 
9 | (R)-(E)-4-methyl-6-oxa-3-aza-2(3,6)-imidazo[1,2-b]pyridazina-1(4,6)-pyrimidina-5(1,2)-benzenacyclooctaphane [Example I-33] |  |  |  | 5.9
10 | (S)-(E)-5^5-fluoro-6-methyl-3-oxa-7-aza-1(3,6)-imidazo[1,2-b]pyridazina-2(2,4), 5(2,3)-dipyridinacycloheptaphane [Example I-25] |  |  |  | 5.1

More lines, now with the values ahead:

Row | IC50 [1] [nM] | IC50 [2] [nM] | IC50 [3] [nM] | IC50 (TRKA^WT kinase) [nM] | Molecule
11 | 0.1 | 0.01 | 0.1 |  | C[C@@H]1Cc2ccnc(c2)-c2cnc3ccc(nn23)N2C[C@@H](F)C[C@@H]2c2cc(F)cnc2O1 [Example I-40, (3^2R,3^4S,6R,E)-3^4,4^5-difluoro-6-methyl-5-oxa-2(3,6)-imidazo[1,2-b]pyridazina-1(2,4),4(3,2)-dipyridina-3(1,2)-pyrrolidinacycloheptaphane]
12 | 0.3 | 0.1 | 0.2 |  | Fc1ccc2c(c1)[C@H]1C[C@H](F)CN1c1ccc3ncc(n3n1)-c1cc(ccn1)CO2 [Example I-50, (14bR,16S,E)-13,16-difluoro-14b,15,16,17-tetrahydro-9H-1,19-etheno-4,8-(metheno)benzo[b]imidazo[1,5-h]pyrrolo[2,1-d][1]oxa[5,7,8,11]tetraazacyclopentadecine]
13 | 2.1 | 0.18 | 0.4 |  | Fc1ccc2c(c1)[C@H]1C[C@H](F)CN1c1ccc3ncc(n3n1)-c1cc(ccn1)CCO2 [Example I-54, (3^2R,3^4S,E)-3^4,4^5-difluoro-5-oxa-2(3,6)-imidazo[1,2-b]pyridazina-1(2,4)-pyridina-3(1,2)-pyrrolidina-4(1,2)-benzenacycloheptaphane]
14 | 9.4 | 0.2 | 0.9 |  | Fc1cnc2c(c1)[C@H]1C[C@H](F)CN1c1ccc3ncc(n3n1)-c1cc(ccn1)CCO2 [Example I-56, (3^2R,3^4S,E)-3^4,4^5-difluoro-5-oxa-2(3,6)-imidazo[1,2-b]pyridazina-1(2,4), 4(3,2)-dipyridina-3(1,2)-pyrrolidinacycloheptaphane]
15 | 12.7 | 0.14 | 2.1 |  | Fc1ccc2c(c1)[C@H]1C[C@H](F)CN1c1ccc3ncc(n3n1)-c1cc(ncn1)CO2 [Example I-58, (14bR,16S,E)-13,16-difluoro-14b,15,16,17-tetrahydro-9H-1,19-etheno-4,8-(metheno)benzo[n]imidazo[5,1-h]pyrrolo[1,2-l][1]oxa[4,6,9,10,12]pentaazacyclopentadecine]
16 | 22.5 | 0.13 | 2.5 |  | Fc1cnc2c(c1)[C@H]1C[C@H](F)CN1c1ccc3ncc(n3n1)-c1cc(ncn1)CO2 [Example I-60, (14bR,16S,E)-13,16-difluoro-14b,15,16,17-tetrahydro-9H-1,19-etheno-4,8-(metheno)imidazo[5,1-h]pyrido[3,2-n]pyrrolo[1,2-l][1]oxa[4,6,9,10,12]pentaazacyclopentadecine]
17 | 13.6 | 0.21 | 0.7 |  | Fc1ccc2c(c1)[C@H]1C[C@H](F)CN1c1ccc3ncc(n3n1)-c1nccc(n1)CO2 [Example I-62, (14bR,16S,E)-13,16-difluoro-14b,15,16,17-tetrahydro-9H-4,8-(azeno)-1,19-ethenobenzo[b]imidazo[1,5-h]pyrrolo[2,1-d][1]oxa[5,7,8,11]tetraazacyclopentadecine]
18 | 8.5 | 0.3 | 0.9 |  | Fc1cnc2c(c1)[C@H]1C[C@H](F)CN1c1ccc3ncc(n3n1)-c1nccc(n1)CO2 [Example I-64, (14bR,16S,E)-13,16-difluoro-14b,15,16,17-tetrahydro-9H-4,8-(azeno)-1,19-ethenoimidazo[1,5-h]pyrido[2,3-b]pyrrolo[2,1-d][1]oxa[5,7,8,11]tetraazacyclopentadecine]
19 | 1.3 | 0.05 | 0.4 |  | Fc1ccc2c(c1)[C@H]1C[C@H](F)CN1c1ccc3ncc(n3n1)-c1cc(cnn1)CO2 [Example I-66, (14bR,16S,E)-13,16-difluoro-14b,15,16,17-tetrahydro-9H-1,19-etheno-4,8-(metheno)benzo[n]imidazo[5,1-h]pyrrolo[1,2-l][1]oxa[5,6,9,10,12]pentaazacyclopentadecine]
